In patent US12384769B2, “Heteroaryl-substituted aminoalkyl azole compounds as pesticides” (Elanco Animal Health GmbH, priority 2019, dated 2025):

How the values were obtained:
Format in all cases: in vivo
[1] = system: Boophilus microplus; test: Boophilus microplus injection test (BOOPMI Injection); settings: Rhipicephalus microplus, 168 h, injection into adult engorged female ticks, egg deposition after 7 days, read-out: activity (efficacy, infertile eggs); for pest or weed control at 0.004 mg: 4 μg/animal; for pest or weed control at 0.02 mg: 20 μg/animal
Method: Boophilus microplus—Injection Test (BOOPMI Injection)
(§1) Solvent: dimethyl sulfoxide
To produce a suitable preparation of active compound, 10 mg of active compound are dissolved in 0.5 mL solvent, and the concentrate is diluted with solvent to the desired concentration.
Five adult engorged female ticks (Boophilus microplus) are injected with 1 μL compound solution into the abdomen. The ticks are transferred into replica plates and incubated in a climate chamber.
After 7 days egg deposition of fertile eggs is monitored. Eggs where fertility is not visible are stored in a climate chamber till hatching after about 42 days. An efficacy of 100% means all eggs are infertile; 0% means all eggs are fertile.

[2] = system: Rhipicephalus microplus (strain Parkhurst, resistant against synthetic pyrethroids); test: Rhipicephalus microplus in-vitro contact test, larval cattle tick (BOOPMI Contact); settings: 5 μg/cm^2 (=500 g/ha), after 48 hours, read-out: activity (efficacy, larvae dead or moribund)
Method: Rhipicephalus microplus—in-Vitro Contact Tests Larval Cattle Tick (Strain Parkhurst, Resistant Against Synthetic Pyrethroids) (BOOPMI Contact)
(§2) 9 mg compound is solved in 1 ml acetone and diluted with acetone to the desired concentration. 250 μL of the test solution is filled in 25 ml glass test tubes and homogeneously distributed on the inner walls by rotation and tilting on a shaking device (2 h at 30 rpm). With a compound concentration of 900 ppm, an inner surface of 44.7 cm^2 and a homogeneous distribution, a dose of 5 μg/cm^2 is achieved.
After the solvent has evaporated, each test tube is filled with 20-50 cattle tick larvae (Rhipicephalus microplus), closed with a perforated lid and incubated in a horizontal position at 85% relative humidity and 27° C. in an incubator. After 48 hours efficacy is determined. The larvae are patted on the ground of the tubes and negative geotactic behaviour is recorded.
An efficacy of 100% means all larvae are dead or moribund; 0% means no larvae are dead or moribund.

[3] = system: Ctenocephalides felis; test: Ctenocephalides felis in-vitro contact test, adult cat flea; settings: 5 μg/cm^2 (=500 g/ha), after 48 hours, read-out: activity (efficacy, fleas dead or moribund)
Method: Ctenocephalides felis—in-Vitro Contact Tests Adult Cat Flea
as §2, with “[…]” for “250 μL”
(§3) After the solvent has evaporated, each test tube is filled with 5-10 adult cat fleas (Ctenocephalides felis), closed with a perforated lid and incubated in a lying position at room temperature and relative humidity. After 48 hours efficacy is determined. The fleas are patted on the ground of the tubes and are incubated on a heating plate at 45-50° C. for at most 5 minutes Immotile or uncoordinated moving fleas, which are not able to escape the heat by climbing upwards, are marked as dead or moribund.
An efficacy of 100% means all fleas are dead or moribund; 0% means no fleas are dead or moribund.

[4] = system: Ctenocephalides felis; test: Ctenocephalides felis oral test (CTECFE); settings: 48 h, 100 ppm in cattle blood, after 2 days
Method: Ctenocephalides felis—Oral Test (CTECFE)
as §1
To produce a suitable preparation of active compound, 10 mg of active compound are dissolved in 0.5 ml solvent, and the concentrate is diluted with cattle blood to the desired concentration.
Approximately 20 adult unfed cat fleas (Ctenocephalides felis) are placed in flea chambers. The blood chamber, sealed with parafilm on the bottom, are filled with cattle blood supplied with compound solution and placed on the gauze covered top of the flea chamber, so that the fleas are able to suck the blood. The blood chamber is heated to 37° C. whereas the flea chamber is kept at room temperature.
After 2 days mortality in % is determined. 100% means all the fleas have been killed; 0% means none of the fleas have been killed.

[5] = system: Diabrotica balteata; test: Diabrotica balteata spray test; settings: 168 h, wheat seeds, after 7 days, read-out: activity (efficacy, seedlings grown); for pest or weed control at 160 µg/disc, 500 g/ha: 500 g/ha (=160 μg/well)
Method: Diabrotica balteata—Spray Test
Solvent: 78.0 parts by weight of acetone • • 1.5 parts by weight of dimethylformamide
(§4) Emulsifier: alkylarylpolyglycol ether
(§5) To produce a suitable preparation of active compound, 1 part by weight of active compound is mixed with the stated amount of solvent, and the concentrate is diluted with water, containing an emulsifier concentration of 1000 ppm, to the desired concentration. Further test concentrations are prepared by dilution with emulsifier containing water.
Soaked wheat seeds (Triticum aestivum) are placed in a multiple well plate filled with agar and some water and are incubated for 1 day to germinate (5 seeds per well). The germinated wheat seeds are sprayed with a test solution containing the desired concentration of the active ingredient. Afterwards each unit is infected with 10-20 larvae of the banded cucumber beetle (Diabrotica balteata).
After 7 days efficacy in % is determined. 100% means all the seedlings have grown up like in the untreated, uninfected control; 0% means none of the seedlings have grown.

[6] = system: Spodoptera frugiperda; test: Spodoptera frugiperda spray test; settings: in Zea mays, 168 h, read-out: activity (mortality)
Method: Spodoptera frugiperda—Spray Test
Solvent: 78.0 parts by weight acetone • 1.5 parts by weight dimethylformamide
as §4
as §5, with “solvents” for “solvent,”, “and” for “and the concentrate”
Maize (Zea mays) leaf sections are sprayed with a preparation of the active ingredient of the desired concentration. Once dry, the leaf sections are infested with fall armyworm larvae (Spodoptera frugiperda).
After 7 days mortality in % is determined. 100% means all caterpillars have been killed and 0% means none of the caterpillars have been killed.

[7] = system: Rhipicephalus sanguineus; test: Rhipicephalus sanguineus in-vitro contact test, adult brown dog ticks (RHIPSA Contact); settings: 5 μg/cm^2 (=500 g/ha), after 48 hours, read-out: activity (efficacy, ticks dead or moribund)
Method: Rhipicephalus sanguineus—in-Vitro Contact Tests with Adult Brown Dog Ticks (RHIPSA Contact)
as §2, with “μl_,” for “μL”
as §3, with “brown dog ticks (Rhipicephalus sanguineus),” for “cat fleas (Ctenocephalides felis),”, “ticks” for “fleas”, “ticks,” for “fleas,”
An efficacy of 100% means all ticks are dead or moribund; 0% means no ticks are dead or moribund.

Row | Compound | pest or weed control at 0.004 mg [1] [%] | pest or weed control at 0.02 mg [1] [%] | pest or weed control at 5 µg/cm2 [2] [%] | pest or weed control at 5 µg/cm2, 5 µg/cm2 [3] [%] | mortality at 100 ppm [4] [%] | pest or weed control at 100 g/ha [5] [%] | pest or weed control at 160 µg/disc, 500 g/ha [5] [%] | mortality at 500 g/ha [6] [%] | pest or weed control at 5 µg/cm2, 5 µg/cm2 [7] [%] | mortality at 100 g/ha [6] [%]
1 | Cc1nc([C@H](C)Nc2nc3cc(C(F)(F)F)cc(Cl)c3o2)n(-c2ncccn2)n1 [Example I-014] | 100 | 100 | 100 | 80 | 100 | 100 | 100 | 100 |  | 
2 | Cc1nc([C@H](C)Nc2nc3cc(C(F)(F)F)c(Cl)cc3o2)n(-c2ccc(C#N)cn2)n1 [Example I-019] |  | 100 | 100 | 100 |  | 100 | 100 | 100 |  | 
3 | C[C@H](Nc1nc2cc(C(F)(F)F)c(Cl)cc2o1)c1ncnn1-c1ccc(C(F)(F)F)cn1 [Example I-031] |  |  |  |  |  |  |  |  | 80 | 
4 | C[C@H](Nc1nc2cc(C(F)(F)F)cc(Cl)c2o1)c1ncnn1-c1ncc(C#N)cn1 [Example I-042, 2-{5-[(1S)-1-{[7-Chlor-5-(trifluormethyl)-1,3-benzoxazol-2-yl]amino}ethyl]-1H-1,2,4-triazol-1-yl}pyrimidin-5-carbonitril] |  |  | 90 | 90 |  |  |  |  |  | 
5 | C[C@H](Nc1nc2cc(C(F)(F)F)cc(Cl)c2o1)c1ncnn1-c1cc(C#N)ccn1 [Example I-052, 2-{5-[(1S)-1-{[7-Chlor-5-(trifluormethyl)-1,3-benzoxazol-2-yl]amino}ethyl]-1H-1,2,4-triazol-1-yl}isonicotinonitril] | 100 | 100 |  | 100 |  |  | 100 | 100 |  | 
6 | C[C@H](Nc1nc2cc(C(F)(F)F)c(Cl)cc2o1)c1ncnn1-c1cnc(C#N)cn1 [Example I-057, 5-{5-[(1S)-1-{[6-Chlor-5-(trifluormethyl)-1,3-benzoxazol-2-yl]amino}ethyl]-1H-1,2,4-triazol-1-yl}pyrazin-2-carbonitril] | 80 |  | 100 | 100 | 100 |  |  |  |  | 100
7 | COc1cnc(-n2ncnc2[C@H](C)Nc2nc3cc(C(F)(F)F)c(Cl)cc3o2)nc1 [Example I-058, 6-Chlor-N-{(1S)-1-[1-(5-methoxypyrimidin-2-yl)-1H-1,2,4-triazol-5-yl]ethyl}-5-(trifluormethyl)-1,3-benzoxazol-2-amin] |  |  | 100 | 100 |  | 100 |  |  |  | 83
8 | CC(C)c1cc(Cl)c2oc(N[C@@H](C)c3ncnn3-c3ccncn3)nc2c1 [Example I-066, 7-Chlor-5-isopropyl-N-{(1S)-1-[1-(pyrimidin-4-yl)-1H-1,2,4-triazol-5-yl]ethyl}-1,3-benzoxazol-2-amin] | 100 | 100 | 90 |  |  |  | 100 |  | 80 | 
9 | C[C@H](Nc1nc2cc(OC(F)(F)F)cc(Cl)c2o1)c1ncnn1-c1ncccn1 [Example I-070, 7-Chlor-N-{(1S)-1-[1-(pyrimidin-2-yl)-1H-1,2,4-triazol-5-yl]ethyl}-5-(triflourmethoxy)-1,3-benzoxazol-2-amin] |  |  |  | 90 | 100 | 100 |  |  |  | 100
10 | C[C@H](Nc1nc2cc(OC(F)F)cc(Cl)c2o1)c1ncnn1-c1ncc(Br)cn1 [Example I-071, N-{(1S)-1-[1-(5-Brompyrimidin-2-yl)-1H-1,2,4-triazol-5-yl]ethyl}-7-chlor-5-(difluormethoxy)-1,3-benzoxazol-2-amin] |  |  |  | 90 | 100 | 100 |  |  |  | 
11 | C[C@H](Nc1nc2cc(OC(F)F)cc(Cl)c2o1)c1ncnn1-c1ncccn1 [Example I-074, 7-Chlor-5-(difluormethoxy)-N-{(1S)-1-[1-(pyrimidin-2-yl)-1H-1,2,4-triazol-5-yl]ethyl}-1,3-benzoxazol-2-amin] | 80 |  |  | 100 | 100 |  |  |  |  | 
12 | C[C@H](Nc1nc2cc(OC(F)(F)F)cc(Cl)c2o1)c1ncnn1-c1ncc(Cl)cn1 [Example I-079, 7-Chlor-N-{(1S)-1-[1-(5-chlorpyrimidin-2-yl)-1H-1,2,4-triazol-5-yl]ethyl}-5-(trifluormethoxy)-1,3-benzoxazol-2-amin] | 80 |  |  | 100 | 100 | 100 |  |  |  | 
13 | C[C@H](Nc1nc2cc(C(F)(F)F)c(Br)cn2n1)c1ncnn1-c1ncccn1 [Example I-094, 6-bromo-N-{(1S)-1-[1-(pyrimidin-2-yl)-1H-1,2,4-triazol-5-yl]ethyl}-7-(trifluoromethyl)[1,2,4]triazolo[1,5-a]pyridin-2-amine] | 100 | 100 |  | 100 | 100 | 100 |  |  |  | 
